For assay [1], the system named is Candida albicans. In words: Antifungal activity against Candida albicans ATCC 90023 after 24 hrs by micro broth dilution method. The class given is functional. Conditions: ATCC 90023, 24 h. On the technique in general: Broth dilution looks for growth in wells or tubes with falling amounts of substance.
A further assay has as its system Candida parapsilosis. In words: Antifungal activity against Candida parapsilosis ATCC 22019 after 24 hrs by micro broth dilution method. The format is functional. Conditions: Lodderomyces parapsilosis, ATCC 22019, 24 h.
Another assay deals with Aspergillus fumigatus. In words: Antifungal activity against Aspergillus fumigatus after 24 hrs by micro broth dilution method. The class given is functional.
A further assay deals with Candida tropicalis. In words: Antifungal activity against Candida tropicalis after 24 hrs by micro broth dilution method. The format is functional.
Assay [2] concerns Candida albicans. In words: Antifungal activity against Candida albicans after 24 hrs by micro broth dilution method. The format is functional.
Assay [3] concerns Calf thymus DNA. In words: Binding affinity to calf thymus DNA assessed as hyperchromic effect up to 2 x 10^-5mol/L by UV-Visible spectrometric analysis. The class given is nucleic-acid assay. As to conditions: Bos taurus.
Assay [4] relates to Candida albicans. In words: Induction of inner membrane permeabilization in Candida albicans assessed as propidium iodide uptake at 12 times MIC up to 105 mins by fluorescence assay. The class given is functional, organism-based.
Assay [5] concerns Candida albicans. In words: Potency index, ratio of 5-fluorocytosine MIC80 to compound MIC80 for Candida albicans. The class given is functional.
The test system of assay [6] is Candida albicans. In words: Potency index, ratio of fluconazole MIC80 to compound MIC80 for Candida albicans. The class given is functional.
The subject of assay [7] is Candida albicans. In words: Fungicidal activity against Candida albicans assessed as log reduction in fungal load at 4 time MIC up to 1 hr by time kill assay. The format is functional.
Assay [8] relates to Calf thymus DNA. In words: Inhibition of neutral red binding to calf thymus DNA by UV-Visible spectrometric analysis. The class given is nucleic-acid assay. As to conditions: Bos taurus.
In assay [9] the test system is Calf thymus DNA. In words: Binding affinity to calf thymus DNA assessed as increase in maximum absorption of DNA by UV-Visible spectrometric analysis. The class given is nucleic-acid assay. As to conditions: Bos taurus.

This note sets out measurements from ChEMBL document CHEMBL4177619, “Novel potentially antifungal hybrids of 5-flucytosine and fluconazole: Design, synthesis and bioactive evaluation” (2017).

≈ marks a conversion by molar mass, not a printed value. Calls of active or inactive are those of the source. No cut-off for these calls is given here. A value given as a limit tells only on which side of the number the result lay.

Regarding `CCCCCCN(CC(O)(Cn1cncn1)c1ccc(F)cc1F)c1nc(=O)[nH]cc1F` (stereo not drawn), the MIC80 – broadly, the lowest concentration that inhibits either 80% of growth or 80% of the strains tested, depending on the study – was found to be 560 µM (≈ 252 µg/mL) against Candida albicans [1]; 280 µM (≈ 126 µg/mL) in the assay with Candida parapsilosis; 560 µM (≈ 252 µg/mL) against Aspergillus fumigatus; 1130 µM (≈ 509 µg/mL) against Candida tropicalis; 560 µM (≈ 252 µg/mL) against Candida albicans [2].
`CCCCCCCCCCCCN(CC(O)(Cn1cncn1)c1ccc(F)cc1F)c1nc(=O)[nH]cc1F` (stereo not drawn): the MIC80 was found to be 1910 µM (≈ 1020 µg/mL) in the assay on Candida albicans [1]; 950 µM (≈ 508 µg/mL) in the assay with Candida parapsilosis; 1910 µM (≈ 1020 µg/mL) in the assay on Aspergillus fumigatus; 950 µM (≈ 508 µg/mL) in the assay on Candida tropicalis; 950 µM (≈ 508 µg/mL) against Candida albicans [2].
On to `O=c1nc(N(Cc2cccc(Cl)c2)CC(O)(Cn2cncn2)c2ccc(F)cc2F)c(F)c[nH]1` (stereo not drawn), for which the MIC80 in the assay with Candida albicans [1] is 130 µM (≈ 63.8 µg/mL); with Candida parapsilosis, 260 µM (≈ 128 µg/mL); in the assay on Aspergillus fumigatus it was 130 µM (≈ 63.8 µg/mL); against Candida tropicalis it was 520 µM (≈ 255 µg/mL); with Candida albicans [2], 130 µM (≈ 63.8 µg/mL).
Regarding `O=c1nc(N(Cc2ccc(Cl)cc2)CC(O)(Cn2cncn2)c2ccc(F)cc2F)c(F)c[nH]1` (stereo not drawn), the MIC80 against Candida albicans [1], in the assay with Candida parapsilosis, in the assay with Aspergillus fumigatus, with Candida tropicalis and in the assay on Candida albicans [2] was 130 µM (≈ 63.8 µg/mL) each time.
For the molecule `O=c1nc(N(Cc2ccc(Cl)cc2Cl)CC(O)(Cn2cncn2)c2ccc(F)cc2F)c(F)c[nH]1` (stereo not drawn), the MIC80 turned out to be 120 µM (≈ 63 µg/mL) in the assay with Candida albicans [1]; 480 µM (≈ 252 µg/mL) with Candida parapsilosis; 240 µM (≈ 126 µg/mL) with Aspergillus fumigatus; 120 µM (≈ 63 µg/mL) in the assay on Candida tropicalis; 240 µM (≈ 126 µg/mL) in the assay with Candida albicans [2].
For the molecule `O=c1nc(N(Cc2ccccc2Cl)CC(O)(Cn2cncn2)c2ccc(F)cc2F)c(F)c[nH]1` (stereo not drawn), the MIC80 in the assay with Candida albicans [1] was found to be 260 µM (≈ 128 µg/mL); in the assay with Candida parapsilosis it was 520 µM (≈ 255 µg/mL); with Aspergillus fumigatus, 260 µM (≈ 128 µg/mL); in the assay on Candida tropicalis, 260 µM (≈ 128 µg/mL); against Candida albicans [2], 130 µM (≈ 63.8 µg/mL).
On to `O=c1nc(N(Cc2ccc(Cl)c(Cl)c2)CC(O)(Cn2cncn2)c2ccc(F)cc2F)c(F)c[nH]1` (stereo not drawn), for which the result with Calf thymus DNA [3] and with Candida albicans [4] was Active. In addition, the MIC80 turned out to be 8 µM (≈ 4.2 µg/mL) against Candida albicans [1]; 30 µM (≈ 15.8 µg/mL) against Candida parapsilosis; 30 µM (≈ 15.8 µg/mL) against Aspergillus fumigatus; 30 µM (≈ 15.8 µg/mL) in the assay with Candida tropicalis; 20 µM (≈ 10.5 µg/mL) against Candida albicans [2]. Further, the Ratio with Candida albicans [5] and with Candida albicans [6] was 8 in each case. The figures for the Activity with Candida albicans [7] and in the assay on Calf thymus DNA [9] were greater than 3 log10CFU/ml and “Dose-dependent effect”, respectively. In addition, in the assay on Calf thymus DNA [8], the inhibition entry is “Dose-dependent effect”. For the same molecule, the K with Calf thymus DNA [9] amounted to 4.88 ×10³ L/mol.
As for `C=CCN(CC(O)(Cn1cncn1)c1ccc(F)cc1F)c1nc(=O)[nH]cc1F` (stereo not drawn), the MIC80 with Candida albicans [1] is 620 µM (≈ 252 µg/mL); in the assay on Candida parapsilosis, 1250 µM (≈ 508 µg/mL); with Aspergillus fumigatus, 620 µM (≈ 252 µg/mL); in the assay on Candida tropicalis, 620 µM (≈ 252 µg/mL); in the assay with Candida albicans [2] it was 310 µM (≈ 126 µg/mL).
For the molecule `CCN(CC(O)(Cn1cncn1)c1ccc(F)cc1F)c1nc(=O)[nH]cc1F` (stereo not drawn), the MIC80 against Candida albicans [1] was found to be 320 µM (≈ 126 µg/mL); against Candida parapsilosis, 320 µM (≈ 126 µg/mL); with Aspergillus fumigatus, 640 µM (≈ 252 µg/mL); in the assay with Candida tropicalis, 640 µM (≈ 252 µg/mL); against Candida albicans [2], 160 µM (≈ 63.1 µg/mL).
As for `C#CCN(CC(O)(Cn1cncn1)c1ccc(F)cc1F)c1nc(=O)[nH]cc1F` (stereo not drawn), the MIC80 in the assay with Candida albicans [1] was 1260 µM (≈ 509 µg/mL); against Candida parapsilosis, 1260 µM (≈ 509 µg/mL); with Aspergillus fumigatus, 630 µM (≈ 255 µg/mL); with Candida tropicalis, 630 µM (≈ 255 µg/mL); with Candida albicans [2], 310 µM (≈ 125 µg/mL).
As to `CCCCCCCCCCN(CC(O)(Cn1cncn1)c1ccc(F)cc1F)c1nc(=O)[nH]cc1F` (stereo not drawn), the MIC80 in the assay on Candida albicans [1] is 2020 µM (≈ 1020 µg/mL); in the assay on Candida parapsilosis, 1010 µM (≈ 512 µg/mL); in the assay on Aspergillus fumigatus, 2020 µM (≈ 1020 µg/mL); against Candida tropicalis it was 1010 µM (≈ 512 µg/mL); against Candida albicans [2] it was 1010 µM (≈ 512 µg/mL).
`CCCCCCCCN(CC(O)(Cn1cncn1)c1ccc(F)cc1F)c1nc(=O)[nH]cc1F` (stereo not drawn): the MIC80 is 530 µM (≈ 254 µg/mL) in the assay on Candida albicans [1]; 530 µM (≈ 254 µg/mL) in the assay with Candida parapsilosis; 2130 µM (≈ 1020 µg/mL) against Aspergillus fumigatus; 1060 µM (≈ 507 µg/mL) against Candida tropicalis; 1060 µM (≈ 507 µg/mL) against Candida albicans [2].
Regarding `O=c1nc(NCC(O)(Cn2cncn2)c2ccc(F)cc2F)c(F)c[nH]1` (stereo not drawn), the MIC80 against Candida albicans [1] was 170 µM (≈ 62.3 µg/mL); in the assay with Candida parapsilosis, 170 µM (≈ 62.3 µg/mL); with Aspergillus fumigatus it was 80 µM (≈ 29.3 µg/mL); in the assay on Candida tropicalis, 40 µM (≈ 14.7 µg/mL); in the assay with Candida albicans [2], 170 µM (≈ 62.3 µg/mL).
As for `O=c1nc(N(Cc2ccc(F)cc2)CC(O)(Cn2cncn2)c2ccc(F)cc2F)c(F)c[nH]1` (stereo not drawn), the MIC80 with Candida albicans [1] amounted to 530 µM (≈ 251 µg/mL); in the assay with Candida parapsilosis, 530 µM (≈ 251 µg/mL); against Aspergillus fumigatus, 260 µM (≈ 123 µg/mL); against Candida tropicalis it was 530 µM (≈ 251 µg/mL); with Candida albicans [2], 260 µM (≈ 123 µg/mL).
Take `CCCN(CC(O)(Cn1cncn1)c1ccc(F)cc1F)c1nc(=O)[nH]cc1F` (stereo not drawn): the MIC80 came to 310 µM (≈ 127 µg/mL) in the assay with Candida albicans [1]; 620 µM (≈ 253 µg/mL) with Candida parapsilosis; 620 µM (≈ 253 µg/mL) against Aspergillus fumigatus; 620 µM (≈ 253 µg/mL) in the assay on Candida tropicalis; 310 µM (≈ 127 µg/mL) in the assay with Candida albicans [2].
`O=c1nc(N(Cc2ccccc2F)CC(O)(Cn2cncn2)c2ccc(F)cc2F)c(F)c[nH]1` (stereo not drawn): the MIC80 was determined as 530 µM (≈ 251 µg/mL) with Candida albicans [1]; 530 µM (≈ 251 µg/mL) in the assay with Candida parapsilosis; 530 µM (≈ 251 µg/mL) in the assay on Aspergillus fumigatus; 530 µM (≈ 251 µg/mL) with Candida tropicalis; 260 µM (≈ 123 µg/mL) in the assay on Candida albicans [2].
As for `CCCCCN(CC(O)(Cn1cncn1)c1ccc(F)cc1F)c1nc(=O)[nH]cc1F` (stereo not drawn), the MIC80 with Candida albicans [1] was determined as 580 µM (≈ 253 µg/mL); in the assay with Candida parapsilosis, 1170 µM (≈ 511 µg/mL); in the assay with Aspergillus fumigatus it was 580 µM (≈ 253 µg/mL); against Candida tropicalis, 290 µM (≈ 127 µg/mL); with Candida albicans [2], 580 µM (≈ 253 µg/mL).
In the case of `CCCCCCCCCCCCCCCCN(CC(O)(Cn1cncn1)c1ccc(F)cc1F)c1nc(=O)[nH]cc1F` (stereo not drawn), the MIC80 is 1730 µM (≈ 1020 µg/mL) in the assay with Candida albicans [1]; 860 µM (≈ 508 µg/mL) in the assay on Candida parapsilosis; 1770 µM (≈ 1050 µg/mL) with Aspergillus fumigatus; 860 µM (≈ 508 µg/mL) with Candida tropicalis; 860 µM (≈ 508 µg/mL) in the assay with Candida albicans [2].
As to `CCCCN(CC(O)(Cn1cncn1)c1ccc(F)cc1F)c1nc(=O)[nH]cc1F` (stereo not drawn), the MIC80 against Candida albicans [1] was found to be 300 µM (≈ 127 µg/mL); against Candida parapsilosis it was 300 µM (≈ 127 µg/mL); against Aspergillus fumigatus, 600 µM (≈ 253 µg/mL); against Candida tropicalis, 600 µM (≈ 253 µg/mL); with Candida albicans [2], 300 µM (≈ 127 µg/mL).
On to `OC(Cn1cncn1)(Cn1cncn1)c1ccc(F)cc1F` [FLUCONAZOLE], for which the MIC80 in the assay on Candida albicans [1] came out at 3 µM (≈ 0.919 µg/mL); against Candida parapsilosis it was 6 µM (≈ 1.84 µg/mL); against Aspergillus fumigatus, 1650 µM (≈ 505 µg/mL); in the assay with Candida tropicalis, 830 µM (≈ 254 µg/mL); with Candida albicans [2], 200 µM (≈ 61.3 µg/mL).
As to `Nc1nc(=O)[nH]cc1F` [FLUCYTOSINE], the MIC80 was 30 µM (≈ 3.87 µg/mL) against Candida albicans [1]; 990 µM (≈ 128 µg/mL) against Candida parapsilosis; 1980 µM (≈ 256 µg/mL) with Aspergillus fumigatus; 1980 µM (≈ 256 µg/mL) against Candida tropicalis; 490 µM (≈ 63.3 µg/mL) in the assay with Candida albicans [2].
With `O=c1nc(N(Cc2ccccc2)CC(O)(Cn2cncn2)c2ccc(F)cc2F)c(F)c[nH]1` (stereo not drawn), the MIC80 against Candida albicans [1] was found to be 280 µM (≈ 128 µg/mL); against Candida parapsilosis, 280 µM (≈ 128 µg/mL); with Aspergillus fumigatus it was 140 µM (≈ 63.9 µg/mL); in the assay on Candida tropicalis, 280 µM (≈ 128 µg/mL); in the assay on Candida albicans [2] it was 280 µM (≈ 128 µg/mL).
